In patent US4657927A, “Malonato platinum compounds” (Research Corporation, priority 1983, dated 1987):

System: Sarcoma 180
Assay: Antitumor activity, solid sarcoma 180 tumor, T/C of tumor weights at day 10 (Table I)
Type: in vivo, female Swiss white mice
Procedure: The compounds of the invention were tested for antitumor activity, i.e., for sensitivity to a planar dsp^2 platinum(II) coordination compound or an octahedral d^2 sp^3 platinum(IV) coordination compound using our standard screening tumor, solid sarcoma 180 tumor in female Swiss white mice, following standard protocols for this testing as set by the National Cancer Institute. (Cancer Chemotherapy Rep., 25 (1962)).
For these tests an S 180 tumor taken from a sacrificed mouse was disected free of superfluous tissue and cut under sterile conditions into approximately 10 milligram size pieces. These tissue pieces were then implanted by trocar in the left axillary region, subcutaneously, in new mice. The mice were, on the average, approximately four weeks old and weighed 18-20 grams. Taking day 0 as the day of implant, the animals were sacrificed on day 10. The tumors were excised and weighed and the ratio of the weights of the tumors in mice in the treated animals to the control set of animals was obtained. This ratio, multiplied by 100, is given as the T/C ratio in Table I.
For the first set of tests the coordination compound was freshly dissolved in sterile distilled water and injected intraperitoneally on day 1 into each of the test mice. The volume of the injection was usually 1/2 ml. In some cases, in order to get an active dose into the animal where the chemical was not soluble in this amount of solvent, a fine dispersion was prepared of the dose needed for the test. Thus, some of our test results were obtained on animals where a slurry of the compound was injected. These are so noted in Table I below. In addition, for some of the compounds, there was injected about 1 ml of solution, either in one single injection, or in 2 injections given a few hours apart of 1/2 ml each. These injections were initially given in 4 different dose levels for each new compound with 6 mice in each dose level. The tests covered a dose range from a low ineffective dose, to an upper dose level which produced some deaths within the time period of the experiment.

[1] = dose level 20 (unit not given), single i.p. injection day 1
[2] = dose level 40 (unit not given), single i.p. injection day 1
[3] = dose level 60 (unit not given), single i.p. injection day 1
[4] = dose level 80 (unit not given), single i.p. injection day 1
[5] = 30 mg/kg, single i.p. injection day 1, solution in H2O
[6] = 40 mg/kg, single i.p. injection day 1, solution in H2O
[7] = 50 mg/kg, single i.p. injection day 1, solution in H2O
[8] = 60 mg/kg, single i.p. injection day 1, solution in H2O
[9] = 70 mg/kg, single i.p. injection day 1, solution in H2O
[10] = 90 mg/kg, single i.p. injection day 1, solution in H2O
[11] = dose level 45 (unit not given), single i.p. injection day 1
[12] = dose level 75 (unit not given), single i.p. injection day 1
[13] = 80 mg/kg, single i.p. injection day 1
[14] = 100 mg/kg, single i.p. injection day 1
[15] = 120 mg/kg, single i.p. injection day 1
[16] = 140 mg/kg, single i.p. injection day 1
[17] = 160 mg/kg, single i.p. injection day 1
[18] = 180 mg/kg, single i.p. injection day 1

## NCCCN.O=C([O-])CC(=O)[O-].[Pt+2] [malonato-1,3 propylenediamineplatinum (II)]
[1]
  No. of Deaths: 0
  T/C: 69
[2]
  No. of Deaths: 0
  T/C: 79
[3]
  No. of Deaths: 0
  T/C: 21
[4]
  No. of Deaths: 1
  T/C: 35

## CC1C(=O)[O][Pt]2([NH]CC[NH]2)[O]C1=O [methylmalonatoethylenediamineplatinum(II)]
[5]
  No. of Deaths: 0
  T/C: 78
[6]
  No. of Deaths: 0
  T/C: 80
[7]
  No. of Deaths: 0
  T/C: 51
[8]
  No. of Deaths: 0
  T/C: 26
[9]
  No. of Deaths: 1
  T/C: 20
[10]
  No. of Deaths: 1
  T/C: 4

## CC(N)CN.O=C([O-])CC(=O)[O-].[Pt+2] [malonato-1,2 propylenediamineplatinum (II)]
[11]
  No. of Deaths: 0
  T/C: 50
[3]
  No. of Deaths: 1
  T/C: 9
[12]
  No. of Deaths: 3
  T/C: 16
Dose level 90 (unit not given), single i.p. injection day 1
  No. of Deaths: 5

## CC1C(=O)[O][Pt]([NH2])([NH2])[O]C1=O [Methylmalonatodiammineplatinum (II)]
[5]
  No. of Deaths: 0
  T/C: 39
[6]
  No. of Deaths: 0
  T/C: 26
[7]
  No. of Deaths: 0
  T/C: 35
[8]
  No. of Deaths: 0
  T/C: 6
[9]
  No. of Deaths: 3/6
80 mg/kg, single i.p. injection day 1, solution in H2O
  No. of Deaths: 6/6

## CN.CN.O=C([O-])CC(=O)[O-].[Pt+2] [malonatobis (methylamine) platinum (II)]
[13]
  No. of Deaths: 0
  T/C: 58
[14]
  No. of Deaths: 0
  T/C: 53
[15]
  No. of Deaths: 0
  T/C: 28
[16]
  No. of Deaths: 0
  T/C: 25
[17]
  No. of Deaths: 1
  T/C: 17
[18]
  No. of Deaths: 1
  T/C: 19
